Assay: Log D determination (octanol / phosphate buffer pH 7.4)
Settings: octanol / 0.1 M phosphate buffer pH 7.4, pH 7.4
Excerpt: Lipophilicity is a key determinant of the PK behavior of drugs. It can influence distribution into tissues, absorption and the binding characteristics of a drug, as well as being an important factor in determining the solubility of a compound. Log D (distribution co-efficient) is used as a measure of lipophilicity.
The solution was transferred to tubes, centrifuged and the supernatant is drawn off the top, leaving any solid compound in the bottom. This supernatant was then syringe filtered through 0.2 μm filters to produce the initial solution. Three vials were prepared containing values. […] The vials were mixed to equilibrium, then centrifuged to ensure the two phases were fully separated before the octanol was removed and the buffer samples analyzed. For the quantitative analysis, the aqueous solutions were analyzed by LC MS/MS. The amount of VCE-004.8 in each vial was quantified against a 6 points standard curve which was produced by serially diluting the initial solution. Log D was calculated using the equation, shown in FIG. 7, wherein ConcINITlAL is a concentration of compound in the initial aqueous solution, ConcFINAL is a concentration of compound in final aqueous phase, Vaq is a volume of aqueous phase, and Voct is a volume of octanol phase.

C=C(C)[C@@H]1CCC(C)=C[C@H]1c1c(O)cc(CCCCC)cc1O [CBD, cannabidiol]
logD: 5.44

— patent US20220184003A1, “Formulations of Cannabidiol Derivatives and Their Use as Modulators of Cannabinoid Receptor Type 2 (CB2)” (EMERALD HEALTH PHARMACEUTICALS INC, priority 2019, published 2022)
